According to patent publication US20080009418A1, “Selective Inhibitors” (Alchemia LTD., priority 2004, published 2008):

Experiments:
[1] = molecular target: T1, Mouse urotensin (mUR2) (Mus musculus, UniProt Q8VIH9); assay: Radioligand binding, mouse urotensin mUR2 membranes, FlashPlate, [125I]-Urotensin II; conditions: compound at 10 μM, [125I]-Urotensin II; for A11: inhibition of radioligand binding: FlashPlate
T1 construct: purchased Perkin Elmer Biosignal
T1 sequence (Q8VIH9 1-385): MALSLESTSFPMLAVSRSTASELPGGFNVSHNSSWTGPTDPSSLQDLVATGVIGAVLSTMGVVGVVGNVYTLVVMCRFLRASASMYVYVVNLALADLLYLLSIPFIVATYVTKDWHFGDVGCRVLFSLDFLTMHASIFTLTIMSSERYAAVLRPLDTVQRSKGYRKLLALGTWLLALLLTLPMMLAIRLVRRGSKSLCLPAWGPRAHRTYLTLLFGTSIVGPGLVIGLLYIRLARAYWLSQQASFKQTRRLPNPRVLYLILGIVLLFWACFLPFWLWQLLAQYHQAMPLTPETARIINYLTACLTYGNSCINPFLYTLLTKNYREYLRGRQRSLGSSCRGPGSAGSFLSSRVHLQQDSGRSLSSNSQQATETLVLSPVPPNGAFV
Method in brief: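 Cloned mouse urotensin (mUR2) receptor membranes from Perkin Elmer Biosignal were immobilized in FlashPlate microplates using a proprietary coating. Each well got 19.5 μl buffer, then 0.5 μl of DMSO, reference ligand, or compound. Adding 5 μl of [125I]-Urotensin II, diluted to 5× final concentration in binding buffer, started binding. Plates were sealed with TopSeal-A and incubated 1 hour at room temperature in the dark. Wells were counted for 30 seconds each on a TopCount after a 60-second delay, and percentage inhibition was calculated.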

[2] = molecular target: T2, Human melanin-concentrating hormone (MCH1) (Homo sapiens, UniProt Q99705); assay: Radioligand binding, human melanin-concentrating hormone MCH1 membranes, FlashPlate, [125I]-S36057; conditions: compound at 10 μM; for A6: inhibition of radioligand binding: [125I]-S36057, FlashPlate
T2 construct: purchased Perkin Elmer Biosignal
Method in brief: (§1)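 Cloned human receptor membranes were coated onto FlashPlate wells and incubated with radioligand and compound (added from a 0.5 mM DMSO daughter plate) for 1 hour at room temperature in the dark. Scintillation counting gave percent inhibition, with DMSO defining total and reference ligand defining non-specific binding.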

[3] = molecular target: T3, Human δ-opioid (DOP) (Homo sapiens, UniProt P41143); assay: Radioligand binding, human δ-opioid (DOP) membranes, FlashPlate, [3H]-Bremazocine; conditions: compound at 10 μM, [3H]-Bremazocine; for A1: inhibition of radioligand binding: FlashPlate
T3 construct: purchased Perkin Elmer Biosignal
Method in brief: as §1

[4] = molecular target: T4, Human Melanocortin (MC3) (Homo sapiens, UniProt P41968); assay: Radioligand binding, human melanocortin MC3 membranes, FlashPlate, [125I]-NDP-αMSH; conditions: compound at 10 μM, [125I]-NDP-αMSH; for A3: inhibition of radioligand binding: FlashPlate
T4 construct: purchased Perkin Elmer Biosignal
Method in brief: as §1

[5] = molecular target: T5, Human μ-opioid (MOP) (Homo sapiens, UniProt P35372); assay: Radioligand binding, human μ-opioid (MOP) membranes, FlashPlate, [3H]-Naloxone; conditions: compound at 10 μM, [3H]-Naloxone; for A7: inhibition of radioligand binding: FlashPlate
T5 construct: purchased Perkin Elmer Biosignal
Method in brief: as §1

[6] = molecular target: T6, Human opioid (ORL1) (Homo sapiens, UniProt P41146); assay: Radioligand binding, human opioid ORL1 membranes, FlashPlate, [125I]-Nociceptin; conditions: compound at 10 μM, [125I]-Nociceptin; for A10: inhibition of radioligand binding: FlashPlate
T6 construct: purchased Perkin Elmer Biosignal
Method in brief: as §1

[7] = molecular target: T7, Human κ-Opioid (KOP) (Homo sapiens, UniProt P41145); assay: Radioligand binding, human κ-opioid (KOP) membranes, filtration, [3H]-Diprenorphine; conditions: compound at 10 μM, [3H]-Diprenorphine; for A2: inhibition of radioligand binding: filtration
T7 construct: purchased Perkin Elmer Biosignal
Method in brief: (§2)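 Percent inhibition of radioligand binding measured on recombinant human membranes: NK1 with [125I]-Substance P, KOP with [3H]-Diprenorphine. Incubation 1 h at room temperature, then harvest onto 0.3% PEI-soaked filters, cold Tris-HCl pH 7.4 washes and scintillation counting; non-specific binding from reference ligand wells.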

[8] = molecular target: T8, Human Melanocortin (MC4) (Homo sapiens, UniProt P32245); assay: Radioligand binding, human melanocortin MC4 membranes, FlashPlate, [125I]-NDP-αMSH; conditions: compound at 10 μM, [125I]-NDP-αMSH; for A4: inhibition of radioligand binding: FlashPlate
T8 construct: purchased Perkin Elmer Biosignal
Method in brief: as §1

[9] = molecular target: T9, Human neurokinin (NK1) (Homo sapiens, UniProt P25103); assay: Radioligand binding, human neurokinin NK1 membranes, filtration, [125I]-Substance P; conditions: compound at 10 μM, [125I]-Substance P; for A8: inhibition of radioligand binding: filtration
T9 construct: purchased Perkin Elmer Biosignal
Method in brief: as §2

[10] = molecular target: T10, Human neuropeptide Y (NPY-Y1) (Homo sapiens, UniProt P25929); assay: Radioligand binding, human neuropeptide Y NPY-Y1 membranes, FlashPlate, [125I]-PYY; conditions: compound at 10 μM, [125I]-PYY; for A9: inhibition of radioligand binding: FlashPlate
T10 construct: purchased Perkin Elmer Biosignal
T10 sequence (P25929 1-384): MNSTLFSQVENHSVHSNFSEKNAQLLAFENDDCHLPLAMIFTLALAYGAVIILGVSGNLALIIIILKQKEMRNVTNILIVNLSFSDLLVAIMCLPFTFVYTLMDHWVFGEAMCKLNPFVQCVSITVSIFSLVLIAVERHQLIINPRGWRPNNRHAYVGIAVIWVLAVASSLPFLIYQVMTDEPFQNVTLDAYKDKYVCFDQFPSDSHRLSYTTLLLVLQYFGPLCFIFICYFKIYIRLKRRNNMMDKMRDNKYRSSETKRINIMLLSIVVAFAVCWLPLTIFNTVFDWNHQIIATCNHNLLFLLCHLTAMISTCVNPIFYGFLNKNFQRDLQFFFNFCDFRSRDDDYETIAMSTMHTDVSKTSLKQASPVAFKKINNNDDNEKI
Method in brief: as §1

[11] = molecular target: T11, Human melanocortin (MC5) (Homo sapiens, UniProt P33032); assay: Radioligand binding, human melanocortin MC5 membranes, FlashPlate, [125I]-NDP-αMSH; conditions: compound at 10 μM, [125I]-NDP-αMSH; for A5: inhibition of radioligand binding: FlashPlate
T11 construct: purchased Perkin Elmer Biosignal
Method in brief: as §1

T6 sequence (P41146 whole entry): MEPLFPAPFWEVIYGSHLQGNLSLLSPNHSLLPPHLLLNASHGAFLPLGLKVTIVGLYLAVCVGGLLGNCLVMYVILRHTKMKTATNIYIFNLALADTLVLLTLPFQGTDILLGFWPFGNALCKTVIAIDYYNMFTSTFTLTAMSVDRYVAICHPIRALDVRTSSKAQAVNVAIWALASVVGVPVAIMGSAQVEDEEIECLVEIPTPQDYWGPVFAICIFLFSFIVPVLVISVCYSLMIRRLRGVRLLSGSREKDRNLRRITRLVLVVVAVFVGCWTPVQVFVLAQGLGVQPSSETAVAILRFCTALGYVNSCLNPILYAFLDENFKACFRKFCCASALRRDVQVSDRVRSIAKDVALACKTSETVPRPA
T7 sequence (P41145 whole entry): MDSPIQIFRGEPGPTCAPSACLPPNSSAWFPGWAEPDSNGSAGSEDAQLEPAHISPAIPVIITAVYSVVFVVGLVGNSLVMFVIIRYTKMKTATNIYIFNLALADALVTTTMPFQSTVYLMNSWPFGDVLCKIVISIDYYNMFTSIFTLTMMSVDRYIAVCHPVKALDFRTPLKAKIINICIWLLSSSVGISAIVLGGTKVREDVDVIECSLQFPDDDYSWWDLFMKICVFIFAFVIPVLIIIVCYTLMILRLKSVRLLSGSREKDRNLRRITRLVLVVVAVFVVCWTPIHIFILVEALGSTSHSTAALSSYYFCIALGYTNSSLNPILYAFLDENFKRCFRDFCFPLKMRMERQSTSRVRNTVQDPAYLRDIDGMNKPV
T8 sequence (P32245 whole entry): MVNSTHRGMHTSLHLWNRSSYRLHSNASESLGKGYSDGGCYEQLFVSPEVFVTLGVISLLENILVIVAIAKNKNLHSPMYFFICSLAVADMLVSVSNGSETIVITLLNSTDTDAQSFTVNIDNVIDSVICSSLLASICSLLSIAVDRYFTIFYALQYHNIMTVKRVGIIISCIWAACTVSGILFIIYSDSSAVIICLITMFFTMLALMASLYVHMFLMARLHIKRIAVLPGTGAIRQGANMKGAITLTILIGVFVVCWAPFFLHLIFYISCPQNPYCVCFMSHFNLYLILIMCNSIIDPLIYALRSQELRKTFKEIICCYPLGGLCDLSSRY
T4 sequence (P41968 whole entry): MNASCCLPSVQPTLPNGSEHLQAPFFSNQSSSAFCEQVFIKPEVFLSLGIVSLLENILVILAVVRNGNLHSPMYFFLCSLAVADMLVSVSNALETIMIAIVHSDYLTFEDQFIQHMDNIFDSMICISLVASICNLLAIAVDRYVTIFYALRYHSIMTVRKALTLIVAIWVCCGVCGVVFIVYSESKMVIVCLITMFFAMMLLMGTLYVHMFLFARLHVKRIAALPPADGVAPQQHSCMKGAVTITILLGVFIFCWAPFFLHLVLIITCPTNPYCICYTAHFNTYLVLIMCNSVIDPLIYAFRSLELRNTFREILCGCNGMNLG
T11 sequence (P33032 whole entry): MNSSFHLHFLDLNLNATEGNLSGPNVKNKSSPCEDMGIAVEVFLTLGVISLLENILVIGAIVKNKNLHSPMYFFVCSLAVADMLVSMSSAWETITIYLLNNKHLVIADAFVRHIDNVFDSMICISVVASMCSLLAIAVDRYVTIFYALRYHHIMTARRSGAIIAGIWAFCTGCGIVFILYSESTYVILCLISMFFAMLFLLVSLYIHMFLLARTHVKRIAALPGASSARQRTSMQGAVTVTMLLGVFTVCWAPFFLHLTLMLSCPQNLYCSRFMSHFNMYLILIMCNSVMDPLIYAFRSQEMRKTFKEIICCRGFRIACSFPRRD
T5 sequence (P35372 whole entry): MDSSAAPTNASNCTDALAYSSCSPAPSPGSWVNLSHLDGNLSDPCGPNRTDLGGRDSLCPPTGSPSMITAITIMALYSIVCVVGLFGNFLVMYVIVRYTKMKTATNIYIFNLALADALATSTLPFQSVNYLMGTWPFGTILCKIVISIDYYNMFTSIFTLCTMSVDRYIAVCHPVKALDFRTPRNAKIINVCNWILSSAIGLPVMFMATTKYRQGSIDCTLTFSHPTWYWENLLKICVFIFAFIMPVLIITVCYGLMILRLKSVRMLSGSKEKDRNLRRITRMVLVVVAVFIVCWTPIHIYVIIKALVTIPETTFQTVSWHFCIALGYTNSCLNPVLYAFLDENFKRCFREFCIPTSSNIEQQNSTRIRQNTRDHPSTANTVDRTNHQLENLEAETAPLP
T9 sequence (P25103 whole entry): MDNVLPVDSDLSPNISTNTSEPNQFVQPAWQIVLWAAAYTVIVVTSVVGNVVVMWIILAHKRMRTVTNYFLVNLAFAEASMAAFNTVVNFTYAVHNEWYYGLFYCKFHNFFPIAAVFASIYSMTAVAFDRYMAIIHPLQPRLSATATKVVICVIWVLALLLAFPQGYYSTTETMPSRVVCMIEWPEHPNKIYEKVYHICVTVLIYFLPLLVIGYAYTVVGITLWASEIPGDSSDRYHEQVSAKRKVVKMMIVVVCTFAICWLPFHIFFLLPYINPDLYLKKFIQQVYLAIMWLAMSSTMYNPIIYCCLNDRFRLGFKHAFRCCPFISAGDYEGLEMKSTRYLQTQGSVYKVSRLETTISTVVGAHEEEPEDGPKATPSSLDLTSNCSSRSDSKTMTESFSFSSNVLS
T2 sequence (Q99705 whole entry): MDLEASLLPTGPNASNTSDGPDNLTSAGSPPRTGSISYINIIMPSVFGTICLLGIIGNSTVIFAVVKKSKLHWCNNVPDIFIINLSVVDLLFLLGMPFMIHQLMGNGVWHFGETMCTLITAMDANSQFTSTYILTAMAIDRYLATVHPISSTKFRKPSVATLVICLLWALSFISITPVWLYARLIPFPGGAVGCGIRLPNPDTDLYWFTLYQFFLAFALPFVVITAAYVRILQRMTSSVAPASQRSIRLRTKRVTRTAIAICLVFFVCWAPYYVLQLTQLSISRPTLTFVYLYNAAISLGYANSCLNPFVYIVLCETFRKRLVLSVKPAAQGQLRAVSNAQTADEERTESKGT
T3 sequence (P41143 whole entry): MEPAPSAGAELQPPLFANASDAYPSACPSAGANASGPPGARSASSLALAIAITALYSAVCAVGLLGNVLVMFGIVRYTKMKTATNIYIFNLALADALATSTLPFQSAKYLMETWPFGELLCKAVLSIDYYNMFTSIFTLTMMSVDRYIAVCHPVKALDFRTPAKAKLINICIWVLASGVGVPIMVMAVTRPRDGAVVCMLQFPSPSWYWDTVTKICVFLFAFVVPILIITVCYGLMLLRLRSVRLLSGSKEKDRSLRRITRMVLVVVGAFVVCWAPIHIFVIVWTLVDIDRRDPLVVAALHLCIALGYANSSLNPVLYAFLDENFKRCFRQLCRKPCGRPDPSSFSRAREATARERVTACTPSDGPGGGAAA

Row | SMILES | A11: inhibition of radioligand binding [1] | A6: inhibition of radioligand binding [2] | A1: inhibition of radioligand binding [3] | A3: inhibition of radioligand binding [4] | A7: inhibition of radioligand binding [5] | A10: inhibition of radioligand binding [6] | A2: inhibition of radioligand binding [7] | A4: inhibition of radioligand binding [8] | A8: inhibition of radioligand binding [9] | A9: inhibition of radioligand binding [10] | A5: inhibition of radioligand binding [11] | further results
1 | COCC1OC(OCc2ccc(Cl)cc2)C(NC(=O)CCCN)C(OCc2ccccc2)C1O (stereo not drawn) [compound 197] | − (“−” indicates less than 50% inhibition at 10 μM) | − (“−” indicates less than 50% inhibition at 10 μM) | − (“−” indicates less than 50% inhibition at 10 μM) | − (“−” indicates less than 50% inhibition at 10 μM) | − (“−” indicates less than 50% inhibition at 10 μM) | − (“−” indicates less than 50% inhibition at 10 μM) | − (“−” indicates less than 50% inhibition at 10 μM) | − (“−” indicates less than 50% inhibition at 10 μM) | + (“+” indicates greater than 50% inhibition at 10 μM) | − (“−” indicates less than 50% inhibition at 10 μM) | − (“−” indicates less than 50% inhibition at 10 μM) | –
2 | CSC1O[C@H](COCc2ccc3ccccc3c2)[C@@H](O)[C@@H](OCc2ccc(Cl)cc2)[C@H]1NC(=O)CCN (stereo partly drawn) [compound 282] | − (“−” indicates less than 50% inhibition at 10 μM) | − (“−” indicates less than 50% inhibition at 10 μM) | − (“−” indicates less than 50% inhibition at 10 μM) | − (“−” indicates less than 50% inhibition at 10 μM) | − (“−” indicates less than 50% inhibition at 10 μM) | − (“−” indicates less than 50% inhibition at 10 μM) | − (“−” indicates less than 50% inhibition at 10 μM) | + (“+” indicates greater than 50% inhibition at 10 μM) | + (“+” indicates greater than 50% inhibition at 10 μM) | − (“−” indicates less than 50% inhibition at 10 μM) | − (“−” indicates less than 50% inhibition at 10 μM) | –
3 | CO[C@H]1[C@H](O)[C@@H](COCc2cccc(O)c2)OC(OCCc2ccccc2)[C@@H]1NC(=O)CCCN (stereo partly drawn) [compound 160] | – | – | – | – | – | – | – | – | – | – | – | A11 radioligand binding, percentage inhibition [1]: − (“−” indicates less than 50% inhibition at 10 μM); A6 radioligand binding, percentage inhibition ([2]; [125I]-S36057): − (“−” indicates less than 50% inhibition at 10 μM); A1 radioligand binding, percentage inhibition [3]: − (“−” indicates less than 50% inhibition at 10 μM); A3 radioligand binding, percentage inhibition [4]: − (“−” indicates less than 50% inhibition at 10 μM); A7 radioligand binding, percentage inhibition [5]: − (“−” indicates less than 50% inhibition at 10 μM); A10 radioligand binding, percentage inhibition [6]: − (“−” indicates less than 50% inhibition at 10 μM); A2 radioligand binding, percentage inhibition [7]: − (“−” indicates less than 50% inhibition at 10 μM); A4 radioligand binding, percentage inhibition [8]: − (“−” indicates less than 50% inhibition at 10 μM); A8 radioligand binding, percentage inhibition [9]: + (“+” indicates greater than 50% inhibition at 10 μM); A9 radioligand binding, percentage inhibition [10]: − (“−” indicates less than 50% inhibition at 10 μM); A5 radioligand binding, percentage inhibition [11]: − (“−” indicates less than 50% inhibition at 10 μM)
